Experimental data reported in patent US6294526A, “Use of flavone derivatives for induction of β-lactam-sensitivity of MRSA” (priority 1998, dated 2001).
Converted amounts (≈) assume the structure as drawn. Read-outs that look alike come from different tables or passages of the source.

Key:
MRSA [1] = experiment: antibacterial activity (MIC) by agar plate dilution method, MRSA strains; format: cell-based, methicillin-resistant Staphylococcus aureus; conditions: Staphylococcus aureus, 20 h
Description: (§1) The screening of the present invention may be carried out according to the agar plate dilution method designated by the Japan Society of Chemotherapy (Chemotherapy 29(1), 76-79 (1981)). Mueller-Hinton agar base semi-synthetic medium may be used for a plate culture medium for a sensitivity test together with an inoculating bacteria solution which may be prepared by culturing bacteria to be tested at 37° C. for 20 hours diluted with 8.5% by isotonic sodium chloride solution to 10^6 CFU/ml. Diluted β-lactam solutions are prepared by two times serial dilution. 1 ml of the diluted β-lactam solution and 1 ml of a predetermined concentration of a sample to be tested are added to 8 ml of the plate culture medium for a sensitivity test. To the resultant plate culture medium for sensitivity test, the bacteria are inoculated using a microplanter (SAKUMASEISAKUSYO Co.), cultured for 20 hours at 37° C. followed by assessing for a minimum inhibition concentration (MIC).
(§2) (A) Antibacterial activities of ether extract from Scutellaria barbata, SB-1 (isolated from Scutellaria barbata), apigenin (authentic sample) and luteolin (authentic sample) were shown in Table 1.
(§3) Flavones were dissolved in methanol and the others were dissolved in 0.1 N NaOH. A method for determination of antibacterial activity is, as described above, an agar plate dilution method designated by the Japan Society of Chemotherapy (Chemotherapy 29(1), 76-79 (1981)) to determine MIC value. MIC80 is a concentration at which a strain is prohibited to proliferate by 80% and MIC50 is a concentration at which a strain is prohibited to proliferate by 50%.

MSSA = experiment: antibacterial activity (MIC) by agar plate dilution method, MSSA strains; format: cell-based, Methicillin-sensitive Staphylooccus aureus; conditions: Staphylococcus aureus, 20 h
Description: as §1, §2, §3

MRSA and MSSA = experiment: antibacterial activity (MIC) by agar plate dilution method, MRSA and MSSA strains together; format: cell-based, Staphylococcus aureus; conditions: for antibacterial activity (in words): Table 2; for MIC: Staphylococcus aureus, 20 h, read-out: MIC values (text summary of Table 2)
Description: as §1, with “(MIC). […]” for “(MIC).”
Antibacterial activity is determined for flavones including flavone, flavonol, flavanone, isoflavone, catechin and calchone, as follows:
as §3

MRSA [2] = experiment: antibacterial activity of antibiotics alone and in the presence of apigenin (4 μg/ml), MRSA; format: cell-based, methicillin-resistant Staphylococcus aureus; conditions: Staphylococcus aureus, MRSA, 20 h
Description: as §1
(D) Then use of 4 μg/ml of apigenin and other antibiotics at the same time was studied. The antibiotics are penicillin , ampicillin, cephalothin, cefoxitin, cefuroxime, cefotaxime, vancomycin, streptomycin, chloramphenicol, kanamycin, erythromycin, nalixic acid and tetracycline.

MRSA No. 5 = experiment: effect of flavone on antibacterial activity of antibiotics against MRSA No. 5 in bouillon (broth microdilution); format: cell-based, methicillin-resistant Staphylococcus aureus; conditions: for MIC: Staphylococcus aureus, MRSA, 20 h; for inhibitory effect on resistance of MRSA No.5 (in words): in the presence of flavone 0.5 mM
Description: Alternatively, the screening of the present invention may be carried out according to the broth microdilution method designated by the Japan Society of Chemotherapy (Chemotherapy 38(1), 102-105 (1990)). Muellar-Hinton broth is used as a culture medium for the sensitivity test, and 50 mg/ml of calcium(Ca) ion, 25 mg/ml of magnesium(Mg) ion, and 2% sodium chloride (NaCl) are added thereto. An inoculating bacteria solution may be prepared by culturing bacteria to be tested in Mueller-Hinton broth at 37° C. for 20 hours and diluting with Mueller-Hinton broth to 10^5 CFU/ml final concentration of inoculating bacteria. Diluted β-lactam solution is prepared by two times serial dilution series. 10 μl of the diluted β-lactam solution and 10 μl of a predetermined concentration of a sample of bacteria to be tested are added to mix with 80 μl of the culture medium for the sensitivity test. To the resultant plate culture medium for sensitivity test, the inoculating bacteria are added and culturing is carried out for 20 hours at 37° C. and then assessment for a minimum inhibition concentration (MIC) is carried out. A minimum inhibition concentration means the minimum concentration of β-lactam at which growth of bacteria is not recognized by the naked eye.
(G) Antibacterial activity of 6 β-lactams, that is, cephalothin, cefuroxime, cefotaxime, cefoxitin, streptomycin and vancomycin, against MRSA in the presence of 0.5 mM flavone was studied in bouillon.
Muellar-Hinton broth was used as a culture medium for the sensitivity test, and 50 mg/ml of calcium (Ca) ion, 25 mg/ml of maqnesium (Mg) ion, 2% sodium chloride (NaCl) were added thereto. An inoculating bacteria solution was prepared by culturing bacteria to be tested with Mueller-Hinton broth at 37° C. for 20 hours and diluting with Mueller-Hinton broth to 10^5 CFU/ml final concentration of inoculating bacteria. Diluted β-lactam solutions were prepared in two times serial dilutions starting from 10 mM. Ten microliters of the diluted β-lactam solution and 10 μl of 5 mM of flavone were mixed with 80 μl of the culture medium for the sensitivity test in a microplate having U-shaped wells and samples of bacteria to be tested were added thereto. The mixture was cultured 20 hours at 37° C. and then assessed for minimum inhibition concentration (MIC). Minimum inhibition concentration means minimum concentration of a β-lactum at which growth of bacteria is inhibited to the extent that bacteria is not recognized by the naked eye.

[3] = MRSA (20 strains), read-out: MIC50
[4] = MSSA (7 strains), read-out: MIC50
[5] = MSSA, MSSA (7 strains), range over strains, read-out: MIC
[6] = antibiotic with Apigenin (4 μg/ml)

SMILES: COc1cc(O)c2c(c1)OC(c1ccc(O)cc1)CC2=O (stereo not drawn) [Sakranetin, sakranetin]
- MIC50 (MRSA [1]; [3]): 125 µg/mL (≈ 437 µM)
- MIC50 (MSSA; [4]): > 250 µg/mL
- antibacterial activity (in words) (MRSA and MSSA; MRSA and MSSA): showed antibacterial activity
- MIC (MRSA and MSSA; MRSA and MSSA, "in each case"): 250 µg/mL (≈ 873 µM)

SMILES: O=C1C[C@@H](c2ccc(O)c(O)c2)Oc2cc(O)cc(O)c21 [Eriodictyol, eriodictyol]
- MIC50 (MRSA [1]; [3]): 250 µg/mL (≈ 867 µM)
- MIC (MRSA [1]; MRSA, MRSA (20 strains), range over strains, read-out: MIC): 250 µg/mL (≈ 867 µM)
- MIC50 (MSSA; [4]): 250 µg/mL (≈ 867 µM)
- MIC (MSSA; [5]): 250 µg/mL (≈ 867 µM)
- antibacterial activity (in words) (MRSA and MSSA; MRSA and MSSA): showed antibacterial activity
- MIC (MRSA and MSSA; MRSA and MSSA, "in each case"): 250 µg/mL (≈ 867 µM)

SMILES: O=c1c(O)c(-c2ccc(O)cc2)oc2cc(O)cc(O)c12 [Kaempferol, kaempferol]
- MIC50 (MRSA [1]; [3]): 250 µg/mL (≈ 873 µM)
- MIC50 (MSSA; [4]): 250 µg/mL (≈ 873 µM)
- antibacterial activity (in words) (MRSA and MSSA; MRSA and MSSA): showed antibacterial activity
- antibacterial activity (in words) (MRSA and MSSA; MRSA and MSSA, listed as kaemferol): showed activity
- MIC (MRSA and MSSA; MRSA and MSSA, "in each case"): 250 µg/mL (≈ 873 µM)

SMILES: O=c1cc(-c2ccc(O)c(O)c2)oc2cc(O)cc(O)c12 [Luteolin, luteolin]
- MIC50 (MRSA [1]; MRSA): 125 µg/mL (≈ 437 µM)
- MIC (MRSA [1]; MRSA, MRSA (20 strains), range over strains): 62.5 to 125 µg/mL (≈ 218 to 437 µM)
- MIC (MRSA [1]; MRSA, MRSA strain No. 1): 125 µg/mL (≈ 437 µM)
- MIC (MRSA [1]; MRSA, MRSA strain No. 2): 125 µg/mL (≈ 437 µM)
- MIC (MRSA [1]; MRSA, MRSA strain No. 3): 125 µg/mL (≈ 437 µM)
- MIC (MRSA [1]; MRSA, MRSA strain No. 4): 125 µg/mL (≈ 437 µM)
- MIC (MRSA [1]; MRSA, MRSA strain No. 5): 62.5 µg/mL (≈ 218 µM)
- MIC (MRSA [1]; MRSA, MRSA strain No. 6): 62.5 µg/mL (≈ 218 µM)
- MIC (MRSA [1]; MRSA, MRSA strain No. 7): 62.5 µg/mL (≈ 218 µM)
- MIC (MRSA [1]; MRSA, MRSA strain No. 8): 62.5 µg/mL (≈ 218 µM)
- MIC (MRSA [1]; MRSA, MRSA strain No. 9): 62.5 µg/mL (≈ 218 µM)
- MIC (MRSA [1]; MRSA, MRSA strain No. 10): 62.5 µg/mL (≈ 218 µM)
- MIC (MRSA [1]; MRSA, MRSA strain No. 11): 125 µg/mL (≈ 437 µM)
- MIC (MRSA [1]; MRSA, MRSA strain No. 12): 125 µg/mL (≈ 437 µM)
- MIC (MRSA [1]; MRSA, MRSA strain No. 13): 62.5 µg/mL (≈ 218 µM)
- MIC (MRSA [1]; MRSA, MRSA strain No. 14): 125 µg/mL (≈ 437 µM)
- MIC (MRSA [1]; MRSA, MRSA strain No. 15): 125 µg/mL (≈ 437 µM)
- MIC (MRSA [1]; MRSA, MRSA strain No. 16): 125 µg/mL (≈ 437 µM)
- MIC (MRSA [1]; MRSA, MRSA strain No. 17): 125 µg/mL (≈ 437 µM)
- MIC (MRSA [1]; MRSA, MRSA strain No. 18): 125 µg/mL (≈ 437 µM)
- MIC (MRSA [1]; MRSA, MRSA strain No. 19): 125 µg/mL (≈ 437 µM)
- MIC (MRSA [1]; MRSA, MRSA strain No. 20): 62.5 µg/mL (≈ 218 µM)
- MIC50 (MSSA; MSSA): 125 µg/mL (≈ 437 µM)
- MIC (MSSA; MSSA, MSSA (7 strains), range over strains): 62.5 to 125 µg/mL (≈ 218 to 437 µM)
- MIC (MSSA; MSSA, MSSA strain No. 21): 125 µg/mL (≈ 437 µM)
- MIC (MSSA; MSSA, MSSA strain No. 22): 125 µg/mL (≈ 437 µM)
- MIC (MSSA; MSSA, MSSA strain No. 23): 62.5 µg/mL (≈ 218 µM)
- MIC (MSSA; MSSA, MSSA strain No. 24): 62.5 µg/mL (≈ 218 µM)
- MIC (MSSA; MSSA, MSSA strain No. 25): 125 µg/mL (≈ 437 µM)
- MIC (MSSA; MSSA, MSSA strain No. 26): 125 µg/mL (≈ 437 µM)
- MIC (MSSA; MSSA, MSSA strain No. 27): 62.5 µg/mL (≈ 218 µM)
- antibacterial activity (in words) (MRSA and MSSA; MRSA and MSSA): showed antibacterial activity

SMILES: O=C(CCc1ccc(O)cc1)c1c(O)cc(O)cc1O [Phloretin, phloretin]
- MIC50 (MRSA [1]; [3]): 250 µg/mL (≈ 912 µM)
- MIC50 (MSSA; [4]): 125 µg/mL (≈ 456 µM)
- MIC (MSSA; [5]): 125 to 250 µg/mL (≈ 456 to 912 µM)
- antibacterial activity (in words) (MRSA and MSSA; MRSA and MSSA): showed activity
- antibacterial activity (in words) (MRSA and MSSA; MRSA and MSSA, listed as phioretin): showed antibacterial activity
- MIC (MRSA and MSSA; MRSA and MSSA, "in each case"): 250 µg/mL (≈ 912 µM)

SMILES: CC(=O)OCC1=C(C(=O)O)N2C(=O)[C@@H](NC(=O)Cc3cccs3)[C@H]2SC1 [Cephalothin, cephalothin]
- MIC (MRSA [2]; Antibiotics alone): 0.98 to 250 µg/mL
- MIC50 (MRSA [2]; Antibiotics alone): 125 µg/mL
- MIC (MRSA [2]; [6]): 0.98 to 250 µg/mL
- MIC50 (MRSA [2]; [6]): 125 µg/mL
- MIC (MRSA No. 5; Concentration of flavone 0 mM): 500 µM (≈ 198 µg/mL)
- MIC (MRSA No. 5; Concentration of flavone 0.5 mM): 1.95 µM (≈ 0.773 µg/mL)
- inhibitory effect on resistance of MRSA No.5 (in words) (MRSA No. 5): showed inhibitory effect on resistance of MRSA No.5

SMILES: O=c1c(O)c(-c2ccc(O)c(O)c2)oc2cc(O)cc(O)c12 [Quercetin, quercetin]
- MIC50 (MRSA [1]; MRSA): 250 µg/mL (≈ 827 µM)
- MIC50 (MSSA; [4]): 250 µg/mL (≈ 827 µM)
- antibacterial activity (in words) (MRSA and MSSA; MRSA and MSSA): showed antibacterial activity
- MIC (MRSA and MSSA): 250 µg/mL (≈ 827 µM)

SMILES: CO/N=C(\C(=O)N[C@@H]1C(=O)N2C(C(=O)O)=C(COC(C)=O)CS[C@H]12)c1csc(N)n1 [Cefotaxime, cefotaxime]
- MIC50 (MRSA [2]; Antibiotics alone, read-out: MIC50): > 250 µg/mL
- MIC50 (MRSA [2]; antibiotic with Apigenin (4 μg/ml), read-out: MIC50): > 250 µg/mL
- MIC (MRSA No. 5; Concentration of flavone 0 mM, read-out: MIC): 1000 µM (≈ 455 µg/mL)
- MIC (MRSA No. 5; Concentration of flavone 0.5 mM, read-out: MIC): 7.8 µM (≈ 3.55 µg/mL)
- inhibitory effect on resistance of MRSA No.5 (in words) (MRSA No. 5): showed inhibitory effect on resistance of MRSA No.5
